From US5635356A, “Anti-oncoimmunin-M antibodies and uses thereof” (The United States of America as represented by the …, priority 1994, dated 1997)

System: Oncoimmunin-M treated HL-60 cells
Assay: Chemotaxis in multiwell microchemotaxis chamber
Format: cell-based, human
Details: HL-60 cells exposed to Oncoimmunin-M (2 nM) for two days; f-Met-Leu-Phe 10^-10 to 10^-6 M; 3 hr, 37° C.; FIG. 22C
Protocol: To assess whether the Oncoimmunin-M induced alterations in integrin expression are associated with the induction of a biologic activity which could serve a role in antitumor or antimicrobial function, HL-60 cells that had been exposed to Oncoimmunin-M (2 nM) for two days were assayed for chemotactic ability. Specifically, the treated cells were placed in a multiwell microchemotaxis chamber and assayed for their ability to migrate in response to a gradient of the chemoattractant recombinant human C5a (rHuC5a), recombinant interleukin-8, and the peptide f-Met-Leu-Phe.
Cells were suspended in the serum-free medium (SFM) at a concentration of 5×10^5 cells/ml. Assays in which the total number of cells migrating through the polyvinylpyrrolidone-free polycarbonate membranes (5 μm pores; Nucleopore Corp., Pleasanton, Calif.) were performed for 3 hr in a 37° C. incubator containing 5% CO2. After incubation, nonmigrated cells were wiped off the filters which were then fixed in methanol and stained with Diff-Quik (Dade Diagnostics, Inc., Aguada, Puerto Rico). Migrated cells were counted with an Optomax System 40-10 Image Analyzer (Optomax, Inc., Hollis, N.H., U.S.A.). Random migration was determined by quantifying cell migration to serum-free medium alone.

## CSCC[C@H](NC=O)C(=O)N[C@@H](CC(C)C)C(=O)N[C@@H](Cc1ccccc1)C(=O)O [f-Met-Leu-Phe]
  migratory (chemotactic) response to chemoattractant gradient: no significant response
